# Data from patent US5547982A, “Anti-tumor platinum complexes” (priority 1995, dated 1996).
# Tested on: Daudi tumor cell line
# Experiment: Cytotoxicity testing against Daudi cells (killing of 50% of the Daudi cells)
# Format: cell-based
# Details: 5E9 conjugate versus free agents, conjugate MSR=8.9, read-out: CC50 (concentration of platinum compound which killed 50% of the Daudi cells)
substance,measurement,value
ammino[4-succinimidyl -(5-aminopentan-2-one) terephthalic hydrazone] tetrachloro platinum (IV) [AAtC],CC50,2100 nM
